What was measured:
Pyrenophora teres = assay: Protective effect of Pyrenophora teres on barley seedlings (spray, protection value from lesion area ratio; Colby's equation for mixtures); format: in vivo
Method: (§1) Hereunder, the evaluation of each fungicide was carried out by converting the ratio into a protection value after measuring the lesion area ratio (in percentage). The protectin value was calculated by means of the equation as follows.
(§2) protection value=(1−(lesion area in the division treated with fungicide)/lesion area in the division not treated with fungicide))×100
(§3) An estimated protection value of a mixture of active ingredients was calculated according to the Colby's equation [R. S. Colby, Weeds 15, 20-22 (1967)] and compared with the experimental protection value.
(§4) wherein E is the estimated protection value (additive effect) which will be obtained when the active ingredients A and B are used in a mixture in concentrations a and b, respectively, x is the protection value obtained when the active ingredient A is used in a concentration a, and y is the protection value obtained when the active ingredient B is used in a concentration b. […] A protection value 0 means that the lesion area ratio of the plants in the test group is as large as that of the plants in the untreated control group. A protective value 100 means that the plants in the test group are free from the disease.
The supplied compound (that is, the compound to which number (No.) was attached in Table 1), and A (picoxystrobin), B (trifloxystrobin), C (pyraclostrobin), D (cresoxime methyl), E (epoxiconazole), F (flusilazole) and G (tebuconasole) shown in Table 31 were, alone or in a mixture form, dissolved into dimethylformamide (final concentration: 1% by weight). Thereto were added xylene (final concentration: 0.02% by weight) and Tween 20 (trade name) (final concentration: 0.02% by weight), and then the solution was diluted with water to have a desired effective component concentration (ppm). To this solution was added a spreading agent SINDAIN (trade name, made by Takeda Chemical Industries, Ltd.) containing 20% by weight of polyoxyethylene nonylphenyl ether and 12% by weight of calcium ligninsulfonate so as to have a final concentration of 0.05% by weight. Thus, a spray solution was prepared. The solution was sprayed, at a rate of 40 ml/pot, onto barley seedlings (cultural variety: Shiaga Hasseki No. 5) grown for 1 week in a greenhouse. After air drying, a suspension containing spores (5×10^5/ml) of Pyrenophora teres was sprayed and inoculated thereto at a rate of 2 ml/pot. After the inoculation, the seedlings were kept inside a high-humidity box having a temperature of 24° C. for 18 hours and then put into a room. After 9 days, the lesion area ratio on the treated leaves was investigated.

Alternaria mali = assay: Prevention effect of Alternaria mali on apple seedlings (spray, protection value from lesion area ratio; Colby's equation for mixtures); format: in vivo
Method: as §1, §2, §3, §4
The supplied compound (that is, the compound to which number (No.) was attached in Table 1-29), and A (picoxystrobin), B (trifloxystrobin), and C (pyraclostrobin) shown in Table 30 were, alone or in a mixture form, dissolved into dimethylformamide (final concentration: 1% by weight). Thereto were added xylene (final concentration: 0.02% by weight) and Tween 20 (trade name) (final concentration: 0.02% by weight), and then the solution was diluted with water to have a desired effective component concentration (ppm). To this solution was added a spreading agent SINDAIN (trade name, made by Takeda Chemical Industries, Ltd.) containing 20% by weight of polyoxyethylene nonylphenyl ether and 12% by weight of calcium ligninsulfonate so as to have a final concentration of 0.05% by weight. Thus, a spray solution was prepared. The solution was sprayed, at a rate of 10 ml/pot, onto the apple seedlings (cultural variety: Star King Delicous) grown for 3 or 4 weeks in a greenhouse. After one day from the treatment, a suspension containing a 1% yeast extract, a 1% sucrose, and spores (5×10^5/ml) of Alternaria mali was sprayed and inoculated thereto at a rate of 1 ml/pot. After the inoculation, the trees were kept inside a high-humidity box having a temperature of 28° C. for 4 days. Thereafter, the lesion area ratio on the treated leaves was examined.

SMILES	Lesion area ratio (%) (Pyrenophora teres; 5.0 ppm active ingredient)	Protection value (Pyrenophora teres; 5.0 ppm active ingredient)	Lesion area ratio (%) (Pyrenophora teres; 0.2 ppm active ingredient)	Protection value (Pyrenophora teres; 0.2 ppm active ingredient)	Lesion area ratio (%) (Alternaria mali; 6.3 ppm active ingredient)	Protection value (Alternaria mali; 6.3 ppm active ingredient)	Lesion area ratio (%) (Alternaria mali; 25.0 ppm active ingredient)	Protection value (Alternaria mali; 25.0 ppm active ingredient)	Lesion area ratio (%) (Alternaria mali; 100.0 ppm active ingredient)	Protection value (Alternaria mali; 100.0 ppm active ingredient)	other results
CC(C)(C)C(O)(CCc1ccc(Cl)cc1)Cn1cncn1 (centres unmarked) [tebuconasole]	22.5	55	–	–	–	–	–	–	–	–	–
CO/N=C(/C(=O)OC)c1ccccc1CO/N=C(\C)c1cccc(C(F)(F)F)c1 [trifloxystrobin, methyl-(E)-methoxyimino-{(E)-α-[1-(α,α,α-trifluoro-m-tolyl)ethylideneaminooxy]-o-tolyl}acetate]	–	–	27.5	45	61.7	0	4.7	90	2.2	95	–
Fc1ccc([C@]2(Cn3cncn3)O[C@H]2c2ccccc2Cl)cc1 (racemic) [epoxiconazole, (2RS,3SR)-1-[3-(2-chlorophenyl)-2,3-epoxy-2-(4-fluorophenyl)propyl]-1H-1,2,4-triazole]	15.0	70	–	–	–	–	–	–	–	–	–
COC(=O)N(OC)c1ccccc1COc1ccn(-c2ccc(Cl)cc2)n1 [pyraclostrobin, methyl N-{2-[1-(4-chlorophenyl)-1-H-pyrazol-3-yloxymethyl]phenyl}(N-methoxy)carbamate]	–	–	12.5	75	11.0	77	11.0	77	3.7	92	–
CO/N=C(/C(=O)OC)c1ccccc1COc1ccccc1C [cresoxime methyl]	27.5	45	–	–	–	–	–	–	–	–	–
C[Si](Cn1cncn1)(c1ccc(F)cc1)c1ccc(F)cc1 [flusilazole]	25.0	50	–	–	–	–	–	–	–	–	–
CCN(c1ccc(Cl)cc1[N+](=O)[O-])S(=O)(=O)c1ccc(C)cc1 [Compound No. 289, 4′-chloro-N-ethyl-2′-nitro-p-toluenesulfonanilide]	–	–	–	–	3.5	93	–	–	–	–	Lesion area ratio (%) (Pyrenophora teres; 0.5 ppm active ingredient): 17.5%; Protection value (Pyrenophora teres; 0.5 ppm active ingredient): 65; Lesion area ratio (%) (Alternaria mali; 0.4 ppm active ingredient): 19.8%; Protection value (Alternaria mali; 0.4 ppm active ingredient): 58; Lesion area ratio (%) (Alternaria mali; 1.6 ppm active ingredient): 19.5%; Protection value (Alternaria mali; 1.6 ppm active ingredient): 59; melting point: 132.5 to 134 °C
CO/C=C(/C(=O)OC)c1ccccc1COc1cccc(C(F)(F)F)n1 [picoxystrobin, methyl (E)-3-mthoxy-2-{2-[6-(trifluoromethyl)-2-pyridyloxymethyl]phenyl}acrylate]	–	–	17.5	65	11.5	76	9.5	80	6.2	87	–

From patent US20040067853A1, “Sulfonamide derivative-containing agricultural and horticultural composition” (priority 2001, published 2004)
